According to patent publication US20240293392A1, “INHIBITOR COMPOUNDS” (NeoPhore Limited, priority 2021, published 2024):
pIC50: −log10 of the molar value.

Experiments:
[1] = biological target: T1, recombinant N-terminal MLH1 (residues 15-340) (Homo sapiens, UniProt P40692); test: Fluorescence Polarisation Assay for MLH1; type: binding; conditions: fluorescence polarisation probe displacement; 100 nM N-terminal MLH1, 5 nM probe compound
T1 construct: recombinant N-terminal MLH1 (residues 15-340)
T1 sequence (P40692 15-340): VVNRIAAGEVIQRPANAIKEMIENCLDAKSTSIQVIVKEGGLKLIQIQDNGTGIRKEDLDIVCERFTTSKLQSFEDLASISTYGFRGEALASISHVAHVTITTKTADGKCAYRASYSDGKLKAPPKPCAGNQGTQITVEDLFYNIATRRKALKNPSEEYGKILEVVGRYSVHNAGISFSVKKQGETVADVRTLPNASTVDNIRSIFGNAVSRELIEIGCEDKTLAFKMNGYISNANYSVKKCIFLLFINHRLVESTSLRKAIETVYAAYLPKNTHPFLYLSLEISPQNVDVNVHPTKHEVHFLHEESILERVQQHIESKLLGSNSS
How it was run: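 FP displacement assay: 100 nM MLH1 (residues 15-340) preincubated 30 min at room temperature with compound in 25 mM HEPES pH 7.5, 250 mM NaCl, 10 mM MgCl2, 0.01% Triton X-100, 5 mM DTT, then 5 nM rhodamine-labelled probe added and read immediately. Data normalised to no-inhibitor and no-enzyme controls.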

[2] = biological target: T2, recombinant N-terminal PMS2 (residues 1-365) (Homo sapiens, UniProt P54278); test: Fluorescence Polarisation Assay for PMS2; type: binding; conditions: fluorescence polarisation probe displacement; 10 nM N-terminal PMS2, 5 nM probe compound; read-out: PMS2 IC50
T2 construct: recombinant N-terminal PMS2 (residues 1-365)
T2 sequence (P54278 1-365): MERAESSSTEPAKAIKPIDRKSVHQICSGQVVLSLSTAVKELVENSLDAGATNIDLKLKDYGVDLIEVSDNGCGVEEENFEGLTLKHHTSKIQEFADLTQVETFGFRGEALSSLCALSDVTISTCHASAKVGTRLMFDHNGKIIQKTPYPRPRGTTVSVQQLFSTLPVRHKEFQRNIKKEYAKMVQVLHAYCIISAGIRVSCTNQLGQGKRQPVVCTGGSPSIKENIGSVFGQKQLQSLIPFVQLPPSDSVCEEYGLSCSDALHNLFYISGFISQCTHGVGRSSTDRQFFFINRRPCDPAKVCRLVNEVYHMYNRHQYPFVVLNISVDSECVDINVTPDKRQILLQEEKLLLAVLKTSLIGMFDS
How it was run: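 Competition fluorescence polarisation with 10 nM N-terminal PMS2 and 5 nM fluorescent probe (final), read after 1 h at room temperature following 30 min compound pre-incubation. Data normalised to no-inhibitor and no-enzyme controls; single-point screening or serial dilutions for potency.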

Row | pIC50 [1] | pIC50 [2] | SMILES
1 | 5.00 to 6.00 | 5.00 to 6.00 | CC(Nc1cccc2c1CN(C(=O)c1c(O)cc(O)cc1OCc1ccccc1)C2)C1COC1 (stereo not drawn) [Example 45, (2-(Benzyloxy)-4,6-dihydroxyphenyl)(4-((1-(oxetan-3-yl)ethyl)amino)isoindolin-2-yl)methanone]
2 | 5.00 to 6.00 | 5.00 to 6.00 | CC(=O)Nc1cccc2c1CN(C(=O)c1c(O)cc(O)cc1OCc1ccccc1)CC2 [Example 101, N-(2-(2-(benzyloxy)-4,6-dihydroxybenzoyl)-1,2,3,4-tetrahydroisoquinolin-8-yl)acetamide]
3 | > 6.00 | < 5.00 | O=C(c1c(O)cc(O)cc1OCc1ccccc1)N1CCc2cccc(N[C@@H]3CCOC3)c2C1 [Example 1, (R)-(2-(Benzyloxy)-4,6-dihydroxyphenyl)(8-((tetrahydrofuran-3-yl)amino)-3,4-dihydro-isoquinolin-2(1H)-yl)methanone]
4 | > 6.00 | < 5.00 | O=C(c1c(O)cc(O)cc1OCc1ccccn1)N1Cc2cccc(NC3CCOC3)c2C1 (stereo not drawn) [Example 40, (2,4-Dihydroxy-6-(pyridin-2-ylmethoxy)phenyl)(4-((tetrahydrofuran-3-yl)amino)isoindolin-2-yl)methanone]
5 | 5.00 to 6.00 | 5.00 to 6.00 | COc1ccc2c(c1)CCN(C(=O)c1c(O)cc(O)cc1OCc1ccccc1)C2 [Example 48, (2-Benzyloxy-4,6-dihydroxy-phenyl)-(6-methoxy-3,4-dihydro-1H-isoquinolin-2-yl)methanone]
6 | > 6.00 | 5.00 to 6.00 | O=C(c1c(O)cc(O)cc1OCc1ccccc1)N1Cc2cccc(NC34CCC(C3)OC4)c2C1 (stereo not drawn) [Example 53, (4-((2-Oxabicyclo[2.2.1]heptan-4-yl)amino)isoindolin-2-yl)(2-(benzyloxy)-4,6-dihydroxyphenyl)methanone]
7 | 5.00 to 6.00 | 5.00 to 6.00 | Cn1ccc(Nc2cccc3c2CN(C(=O)c2c(O)cc(O)cc2OCc2ccccc2)CC3)cc1=O [Example 133, 4-((2-(2-(Benzyloxy)-4,6-dihydroxybenzoyl)-1,2,3,4-tetrahydro-isoquinolin-8-yl)amino)-1-methylpyridin-2(1H)-one]
8 | > 6.00 | > 6.00 | CN1C[C@@H](Nc2cccc3c2CN(C(=O)c2c(O)cc(O)cc2OCc2ccccc2)C3)CC1=O [Example 137, (S)-4-((2-(2-(Benzyloxy)-4,6-dihydroxybenzoyl)isoindolin-4-yl)amino)-1-methylpyrrolidin-2-one]
9 | > 6.00 | > 6.00 | O=C(c1c(O)cc(O)cc1OCc1ccccc1)N1Cc2ccc(CN3CCOCC3)cc2C1 [Example 12, (2-(Benzyloxy)-4,6-dihydroxyphenyl)(5-(morpholinomethyl)isoindolin-2-yl)methanone]
10 | > 6.00 | 5.00 to 6.00 | O=C(c1c(O)cc(O)cc1OCc1ccccc1)N1Cc2cccc(NC3CCOCC3)c2C1 [Example 15, (2-(Benzyloxy)-4,6-dihydroxyphenyl)(4-((tetrahydro-2H-pyran-4-yl)amino)isoindolin-2-yl)methanone]
11 | > 6.00 | < 5.00 | CN1C[C@@H](Nc2cccc3c2CN(C(=O)c2c(O)cc(O)cc2OCc2ccccn2)CC3)CC1=O [Example 58, (S)-4-((2-(2,4-Dihydroxy-6-(pyridin-2-ylmethoxy)benzoyl)-1,2,3,4-tetrahydroisoquinolin-8-yl)amino)-1-methylpyrrolidin-2-one]
12 | 5.00 to 6.00 | < 5.00 | COCOc1cc(OCOC)c(C(=O)N2CCc3cccc(N(C)C4CN(C(C)=O)C4)c3C2)c(OCc2ccccc2)c1 [Example 149, 1-(3-((2-(2-(Benzyloxy)-4,6-bis(methoxymethoxy)benzoyl)-1,2,3,4-tetrahydroisoquinolin-8-yl)(methyl)amino)azetidin-1-yl)ethan-1-one]
13 | 5.00 to 6.00 | 5.00 to 6.00 | O=C(c1c(O)cc(O)cc1OCc1ccccc1)N1Cc2cccc(OC3CCOC3)c2C1 (stereo not drawn) [Example 88, (2-(Benzyloxy)-4,6-dihydroxyphenyl)(4-((tetrahydrofuran-3-yl)oxy)isoindolin-2-yl)methanone]
14 | > 6.00 | 5.00 to 6.00 | O=C(c1c(O)cc(O)cc1OCc1ccc(F)c(F)c1)N1Cc2cccc(NC3CCOC3)c2C1 (stereo not drawn) [Example 38, (2-((3,4-Difluorobenzyl)oxy)-4,6-dihydroxyphenyl)(4-((tetrahydrofuran-3-yl)amino)isoindolin-2-yl)methanone]
15 | > 6.00 | 5.00 to 6.00 | O=C(c1c(O)cc(O)cc1OCc1ccccc1)N1Cc2cccc(NC3CCOC3)c2C1 (stereo not drawn) [Example 6, (2-(Benzyloxy)-4,6-dihydroxyphenyl)(4-((tetrahydrofuran-3-yl)amino)isoindolin-2-yl)methanone]
16 | > 6.00 | > 6.00 | CN1CC(Nc2cccc3c2CN(C(=O)c2c(O)cc(O)cc2OCc2ccccc2)CC3)CC1=O (single isomer, unassigned) [Example 62, 4-((2-(2-(Benzyloxy)-4,6-dihydroxybenzoyl)-1,2,3,4-tetrahydroisoquinolin-8-yl)amino)-1-methylpyrrolidin-2-one]
17 | > 6.00 | 5.00 to 6.00 | O=C(c1c(O)cc(O)cc1OCc1ccccc1)N1CCc2cccc(Nc3ccnnc3)c2C1 [Example 120, (2-(Benzyloxy)-4,6-dihydroxyphenyl)(8-(pyridazin-4-ylamino)-3,4-dihydroisoquinolin-2(1H)-yl)methanone]
18 | > 6.00 | 5.00 to 6.00 | COCCNc1cccc2c1CN(C(=O)c1c(O)cc(O)cc1OCc1ccccc1)CC2 [Example 44, (2-(Benzyloxy)-4,6-dihydroxyphenyl)(8-((2-methoxyethyl)amino)-3,4-dihydroisoquinolin-2(1H)-yl)methanone]
19 | > 6.00 | < 5.00 | O=C(c1c(O)cc(O)cc1OCc1ccccc1)N1CCc2cccc(Nc3ccc(=O)[nH]c3)c2C1 [Example 134, 5-((2-(2-(Benzyloxy)-4,6-dihydroxybenzoyl)-1,2,3,4-tetrahydroisoquinolin-8-yl)amino)pyridin-2(1H)-one]
20 | > 6.00 | 5.00 to 6.00 | Cn1ncc(Nc2cccc3c2CN(C(=O)c2c(O)cc(O)cc2OCc2ccccc2)C3)n1 [Example 35, (2-(Benzyloxy)-4,6-dihydroxyphenyl)(4-((2-methyl-2H-1,2,3-triazol-4-yl)amino)isoindolin-2-yl)methanone]
21 | > 6.00 | > 6.00 | O=C(c1c(O)cc(O)cc1OCc1ccccc1)N1Cc2cccc(Nc3cncnc3)c2C1 [Example 19, (2-(Benzyloxy)-4,6-dihydroxyphenyl)(4-(pyrimidin-5-ylamino)isoindolin-2-yl)methanone]
22 | 5.00 to 6.00 | 5.00 to 6.00 | O=C(c1c(O)cc(O)cc1OCc1ccccc1)N1CCc2c(cccc2NC2CCOC2)C1 (stereo not drawn) [Example 27, (2-(Benzyloxy)-4,6-dihydroxyphenyl)(5-((tetrahydrofuran-3-yl)amino)-3,4-dihydroisoquinolin-2(1H)-yl)methanone]
23 | 5.00 to 6.00 | 5.00 to 6.00 | COc1ccc2c(c1)CN(C(=O)c1c(O)cc(O)cc1OCc1ccccc1)CC2 [Example 49, (2-Benzyloxy-4,6-dihydroxy-phenyl)-(7-methoxy-3,4-dihydro-1H-isoquinolin-2-yl)methanone]
24 | > 6.00 | > 6.00 | CN(C)C(=O)c1cc2c(c(N[C@H]3CCOC3)c1)CN(C(=O)c1c(O)cc(O)cc1OCc1ccccc1)CC2 [Example 130, (S)-2-(2-(Benzyloxy)-4,6-dihydroxybenzoyl)-N,N-dimethyl-8-((tetrahydrofuran-3-yl)amino)-1,2,3,4-tetrahydroisoquinoline-6-carboxamide]
25 | 5.00 to 6.00 | < 5.00 | COCCCC(=O)N1CC[C@H](N(C)c2cccc3c2CN(C(=O)c2c(O)cc(O)cc2OCc2ccccc2)CC3)C1 [Example 150, (S)-1-(3-((2-(2-(Benzyloxy)-4,6-dihydroxybenzoyl)-1,2,3,4-tetrahydroisoquinolin-8-yl) (methyl)amino)pyrrolidin-1-yl)-4-methoxybutan-1-one]
26 | > 6.00 | 5.00 to 6.00 | CC(=O)N1CC(Nc2cccc3c2CN(C(=O)c2c(O)cc(O)cc2OCc2ccccc2)CC3)C1 [Example 146, 1-(3-((2-(2-(Benzyloxy)-4,6-dihydroxybenzoyl)-1,2,3,4-tetrahydroisoquinolin-8-yl)amino)azetidin-1-yl)ethan-1-one]
27 | > 6.00 | > 6.00 | CNC(=O)c1ccc2c(c1)CN(C(=O)c1c(O)cc(O)cc1OCc1ccccc1)C2 [Example 86, 2-(2-(Benzyloxy)-4,6-dihydroxybenzoyl)-N-methylisoindoline-5-carboxamide]
